# US4131620A, “Sulfamic acid halides and their manufacture” (BASF Aktiengesellschaft, priority 1976, dated 1978)
# Assays:
# Avena sativa = test: herbicidal action, post-emergence method, in a greenhouse; type: in vivo, Avena sativa (oats); conditions: Avena sat., 3 kg/ha of active ingredient (footnote +), 0 = no damage, 100 = complete destruction
# Method: (§1) A range of crop plants and of unwanted plants are treated in a greenhouse. The test plants, segregated according to species, are grown in plastic pots. When they have grown to from 2 to 15 cm, depending on the age and the habit of the species, emulsions of the end product I prepared in Example 10 are applied to the leaves by means of jets which produce a fine spray (post-emergence treatment). Water (300 liters per hectare) serves as the vehicle and dispersing medium. […] The results are rated on a scale of from 0 to 100, with O = no damage and 100 = complete destruction.
# Glycine max = test: as above; type: in vivo, Glycine max (soy beans); conditions: Glyc. max, 0 = no damage, 100 = complete destruction
# Method: as §1
# Oryza sativa = test: as above; type: in vivo, Oryza sativa (rice); conditions: Oryz. sat., 0 = no damage, 100 = complete destruction
# Method: (§2) A range of crop plants and of unwanted plants are treated in a greenhouse. The test plants, segregated according to species, are grown in plastic pots. […] Water (300 liters per hectare) serves as the vehicle and dispersing medium. […] The results are rated on a scale of from 0 to 100, with O = no damage and 100 = complete destruction.
# Ammannia coccinea = test: as above; type: in vivo, Ammannia coccinea (redstem); conditions: Amm. cocc., 0 = no damage, 100 = complete destruction
# Method: as §1
# Amaranthus retroflexus = test: as above; type: in vivo, Amaranthus retroflexus (pigweed); conditions: Amar. retr., 0 = no damage, 100 = complete destruction
# Method: as §2
# Cyperus esculentus = test: as above; type: in vivo, Cyperus esculentus (yellow nutsedge); conditions: Cyp. esc., 0 = no damage, 100 = complete destruction
# Method: as §2
# Ipomoea spp. = test: as above; type: in vivo, Ipomoea spp. (morning glory); conditions: Ipom. spp., 0 = no damage, 100 = complete destruction
# Method: as §2
# Ludwigia spp. = test: as above; type: in vivo; conditions: Ludw. spp., 0 = no damage, 100 = complete destruction
# Method: as §2
# Sesbania exaltata = test: as above; type: in vivo, Sesbania exaltata (hemp sesbania (coffeeweed)); conditions: Sesb. exalt., 0 = no damage, 100 = complete destruction
# Method: as §1
# Sida spinosa = test: as above; type: in vivo, Sida spinosa (teaweed (pricly sida)); conditions: Sida spin., 0 = no damage, 100 = complete destruction
# Method: as §2
# Sinapis alba = test: as above; type: in vivo, Sinapis alba (white mustard); conditions: Sin. alba, 3 kg/ha of active ingredient (footnote +), 0 = no damage, 100 = complete destruction
# Method: as §1
# crop plants = test: herbicidal action, post-emergence treatment in a greenhouse, crop plants; type: in vivo; conditions: after one week
# Method: as §1
# unwanted plants = test: herbicidal action, post-emergence treatment in a greenhouse, unwanted plants; type: in vivo
# Method: as §1
smiles,measurement,setting,value
"CCN(COC)S(=O)(=O)N1c2ccccc2C(=O)N(C(C)C)S1(=O)=O [Example 10, 3-isopropyl-1-N'-methoxymethyl-N'-ethylsulfamoyl-2,1,3-benzothiadiazin-4-one-2,2-dioxide]",% damage,Avena sativa,0%
same,% damage,Glycine max; 2.0 kg/ha of active ingredient,5%
same,% damage,Glycine max; 4.0 kg/ha of active ingredient,15%
same,% damage,Oryza sativa; 2.0 kg/ha of active ingredient,0%
same,% damage,Oryza sativa; 4.0 kg/ha of active ingredient,0%
same,% damage,Ammannia coccinea; 2.0 kg/ha of active ingredient,50%
same,% damage,Ammannia coccinea; 4.0 kg/ha of active ingredient,60%
same,% damage,Amaranthus retroflexus; 2.0 kg/ha of active ingredient,60%
same,% damage,Amaranthus retroflexus; 4.0 kg/ha of active ingredient,60%
same,% damage,Cyperus esculentus; 2.0 kg/ha of active ingredient,60%
same,% damage,Cyperus esculentus; 4.0 kg/ha of active ingredient,70%
same,% damage,Ipomoea spp.; 2.0 kg/ha of active ingredient,50%
same,% damage,Ipomoea spp.; 4.0 kg/ha of active ingredient,90%
same,% damage,Ludwigia spp.; 2.0 kg/ha of active ingredient,50%
same,% damage,Ludwigia spp.; 4.0 kg/ha of active ingredient,75%
same,% damage,Sesbania exaltata; 2.0 kg/ha of active ingredient,50%
same,% damage,Sesbania exaltata; 4.0 kg/ha of active ingredient,60%
same,% damage,Sida spinosa; 2.0 kg/ha of active ingredient,95%
same,% damage,Sida spinosa; 4.0 kg/ha of active ingredient,95%
same,% damage,Sinapis alba,100%
same,damage to crop plants (in words),crop plants,very little or no attach
same,onset of action (in words),unwanted plants,The action sets in rapidly
same,damage to unwanted plants (in words),unwanted plants; after one week,dying
